# Results as given in US7157457B2, “Compounds useful in the treatment of inflammatory diseases” (Glaxo Group Limited, priority 2000, dated 2007).
# Structures can show the parent of a compound that is named as a salt.
# Molecular target: T1, CCR-3 (Homo sapiens, UniProt P51677)
# T1 sequence (P51677 1-355): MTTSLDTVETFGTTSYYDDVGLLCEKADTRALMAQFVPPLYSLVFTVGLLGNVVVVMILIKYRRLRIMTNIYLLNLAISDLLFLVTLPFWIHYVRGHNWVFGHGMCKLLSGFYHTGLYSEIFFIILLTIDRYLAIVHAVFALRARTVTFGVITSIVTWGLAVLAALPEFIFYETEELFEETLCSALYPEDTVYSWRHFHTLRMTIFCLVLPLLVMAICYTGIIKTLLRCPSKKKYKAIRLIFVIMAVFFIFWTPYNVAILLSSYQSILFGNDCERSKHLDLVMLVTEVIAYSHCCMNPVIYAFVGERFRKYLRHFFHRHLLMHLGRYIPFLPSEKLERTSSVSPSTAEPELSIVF
# Assay: CCR-3 competition binding SPA ([125I]eotaxin)
# Design: expressed in transfected cells
# Conditions: inhibition of [125I]eotaxin binding to membranes of K562 cells stably expressing CCR-3; mean of at least two experiments; read-out: CCR-3 Binding Assay (pIC50) (converted)
# Protocol: A CCR-3 competition binding SPA (scintillation proximity assay) was used to assess the affinity of novel compounds for CCR-3. Membranes prepared from K562 cells stably expressing CCR-3 (2.5 μg/well) were mixed with 0.25 mg/well wheat-germ agglutinin SPA beads (Amersham) and incubated in binding buffer (HEPES 50 mM, CaCl2 1 mM, MgCl2 5 mM, 0.5% BSA) at 4° C. for 1.5 hr. Following incubation, 20 pM of [^125I] eotaxin (Amersham) and increasing concentrations of compound (1 pM to 30 μM) were added and incubated in a 96 well plate for 2 hr at 22° C. then counted on a Microbeta plate counter. The total assay volume was 100 μl. Competition binding data were analysed by fitting the data with a four parameter logistic equation. Data are presented as the mean pIC50 values (negative logarithm of the concentration of compound which inhibits [^125I]eotaxin binding by 50%) from at least two experiments.
row,IC50 [nM],SMILES
1,1910,"C=Cc1ccc(CN2CCOC(CNC(=O)Nc3ccc(Cl)cc3)C2)cc1 (stereo not shown) [Example 38, N-(4-Chlorophenyl)-N′-{[4-(4-vinylbenzyl)morpholin-2-yl]methyl}urea]"
2,1.78,"CC(=O)Nc1cccc(CNC(=O)NCC2CN(Cc3ccc(Cl)c(Cl)c3)CCO2)c1 (stereo not shown) [Example 52, N-[3-({[({[4-(3,4-Dichlorobenzyl)morpholin-2-yl]methyl}amino)carbonyl]amino}methyl)phenyl]acetamide Formate]"
3,10500,"CCOC(=O)C(c1ccccc1)N1CCOC(CNC(=O)Nc2ccc(Cl)cc2)C1 (stereo not shown) [Example 44, Ethyl {2-[({[(4-chlorophenyl)amino]carbonyl}amino)methyl]morpholin-4-yl}(phenyl)acetate]"
4,15.8,"Cn1nnc(CNC(=O)NC[C@H]2CN(Cc3ccc(Cl)c(Cl)c3)CCO2)n1 [Example 136, N-{[(2S)-4-(3,4-dichlorobenzyl)morpholin-2-yl]methyl}-N′-[(2-methyl-2H-tetraazol-5-yl)methyl]urea]"
5,3800,"O=C(NCC1CN(Cc2ccc(Cl)s2)CCO1)Nc1ccc(Cl)cc1 (stereo not shown) [Example 37, N-(4-Chlorophenyl)-N′-({4-[(5-chlorothien-2-yl)methyl]morpholin-2-yl}methyl)urea]"
6,11,"NC(=O)c1ccc(CNC(=O)NC[C@H]2CN(Cc3ccc(Cl)c(Cl)c3)CCO2)cc1 [Example 54, 4-({[({[(2S)-4-(3,4-Dichlorobenzyl)morpholin-2-yl]methyl}amino)carbonyl]amino}methyl)benzamide]"
7,66.1,"O=C(NCc1ccc(Cl)cc1)NCC1CN(Cc2ccc(Cl)c(Cl)c2)CCO1 (stereo not shown) [Example 47, N-(4-Chlorobenzyl)-N′-{[4-(3,4-dichlorobenzyl)morpholin-2-yl]methyl}urea]"
8,15.8,"CNC(=O)c1ccc(CNC(=O)NC[C@H]2CN(Cc3ccc(Cl)c(Cl)c3)CCO2)cc1 [Example 149, 4-({[({[(2S)-4-(3,4-dichlorobenzyl)morpholin-2-yl]methyl}amino)carbonyl]amino}methyl)-N-methylbenzamide]"

# The remaining lines, values behind:
row,SMILES,IC50 [nM]
1,"O=C(NCC1CN(Cc2ccc(Cl)c(Cl)c2)CCO1)Nc1cccc(C(F)(F)F)c1 (stereo not shown) [Example 22, N-{[4-(3,4-Dichlorobenzyl)morpholin-2-yl]methyl}-N′-[3-(trifluoromethyl)phenyl]urea]",955
2,"O=C(NCC1CN(Cc2ccc(Cl)c(Cl)c2)CCO1)Nc1ccc(SC(F)(F)F)cc1 (stereo not shown) [Example 34, N-{[4-(3,4-Dichlorobenzyl)morpholin-2-yl]methyl}-N′-{4-[(trifluoromethyl)thio]phenyl}urea]",2000
3,O=C(NCC1CN(Cc2cccc(I)c2)CCO1)Nc1ccc(Cl)cc1 (stereo not shown) [Example 21],955
4,"N#Cc1ccc(NC(=O)NCC2CN(Cc3ccc(Cl)c(Cl)c3)CCO2)cc1 (stereo not shown) [Example 25, N-(4-Cyanophenyl)-N′-{[4-(3,4-dichlorobenzyl)morpholin-2-yl]methyl}urea]",1000
5,"O=C(NCC1CN(Cc2ccc(Cl)c(Cl)c2)CCO1)Nc1ccc(OC(F)F)cc1 (stereo not shown) [Example 16, N-{[4-(3,4-Dichlorobenzyl)morpholin-2-yl]methyl}-N′-[4-(difluoromethoxy)phenyl]urea]",741
6,"N#Cc1cccc(NC(=O)NCC2CN(Cc3ccc(Cl)c(Cl)c3)CCO2)c1 (stereo not shown) [Example 5, N-(3-Cyanophenyl)-N′-{[4-(3,4-dichlorobenzyl)morpholin-2-yl]methyl}urea]",117
7,"Cc1ccc(CNC(=O)NCC2CN(Cc3ccc(Cl)c(Cl)c3)CCO2)cc1 (stereo not shown) [Example 3, N-{[4-(3,4-Dichlorobenzyl)morpholin-2-yl]methyl}-N′-(4-methylbenzyl)urea]",69.2
8,"O=C(NCC1CN(Cc2ccc(Cl)c(Cl)c2)CCO1)Nc1ccc(Cl)cc1 (stereo not shown) [Example 14, N-(4-Chlorophenyl)-N′-{[4-(3,4-dichlorobenzyl)morpholin-2-yl]methyl}urea]",661
9,"O=C(NCC1CN(Cc2ccc3ccccc3c2)CCO1)Nc1ccc(Cl)cc1 (stereo not shown) [Example 23, N-(4-Chlorophenyl)-N′-{[4-(2-naphthylmethyl)Morpholin-2-yl]methyl}urea]",832

# Test system: ovalbumin sensitised guinea pigs
# Assay: Guinea-pig ovalbumin model: eosinophil infiltration and hyper-reactivity
# Type: in vivo
# Conditions: 0.2–20 mg/kg, oral route
# Protocol: (c) Guinea-pig Ovalbumin Model
# Inhibition of Eosinophil Infiltration and Hyper-Reactivity in the Guinea Pig
# In a method based on that described by Danahay et al., 1997, ovalbumin sensitised guinea pigs were dosed with mepyramine (30 mg kg^−1 ip) to protect against anaphylactic bronchospasm. Test compounds, dissolved in 10% DMSO and 90% PEG200, were given by the oral route, 30 minutes before ovalbumin challenge (10 minutes breathing of an aerosol generated from a 0.5% solution of ovalbumin). Hyper-reactivity of the airways to the thromboxane mimetic U46619, was measured 24 hours after ovalbumin challenge in unrestrained animals using a whole body plethysmograph (Buxco Ltd., USA). The guinea pigs were then sacrificed and the lungs lavaged. Total and differential leukocyte counts were then obtained for the bronchoalveolar lavage fluid and the percentage reduction in eosinophil accumulation determined (Sanjar et al., 1992). Data was presented as the inhibitory effect of the specified dose expressed as a percentage of the vehicle control response.
row,SMILES,inhibition of lung eosinophilia
1,"O=C(NCC1CN(Cc2ccc(Cl)c(Cl)c2)CCO1)Nc1ccc(Cl)cc1 (stereo not shown) [Example 14, N-(4-Chlorophenyl)-N′-{[4-(3,4-dichlorobenzyl)morpholin-2-yl]methyl}urea]",showed inhibition

# Same assay, conditions: 0.2–20 mg/kg, oral route, hyper-reactivity to U46619
row,SMILES,inhibition of bronchial hyperreactivity
1,"O=C(NCC1CN(Cc2ccc(Cl)c(Cl)c2)CCO1)Nc1ccc(Cl)cc1 (stereo not shown) [Example 14, N-(4-Chlorophenyl)-N′-{[4-(3,4-dichlorobenzyl)morpholin-2-yl]methyl}urea]",showed inhibition

# Molecular target: T1, CCR-3
# Assay: Eosinophil chemotaxis assay (eotaxin-induced)
# Type: cell-based
# Design: Eosinophils were purified from human peripheral blood; endogenous in cells; host or cells: human peripheral blood eosinophils
# Conditions: functional pKi; eosinophils from human peripheral blood; agonist eotaxin; read-out: CCR-3 Eosinophil Chemotaxis Assay (fpKi) (converted)
# Protocol: (b) Eosinophil Chemotaxis Assay.
# Compounds were evaluated for their inhibitory effect on eosinophil chemotaxis. Eosinophils were purified from human peripheral blood by standard CD16 cell depletion using a Miltenyi cell separation column and a magnetic Super Macs magnet as previously described (Motegi & Kita, 1998; J. Immunology. 161:4340–6). Cells were re-suspended in RPMI 1640/10% FCS solution and incubated with calcein-AM (Molecular Probes) at 37° C. for 30 mins. Following incubation, the eosinophils were centrifuged at 400 g for 5 min and re-suspended in RPMI/FCS at 2.2 million/ml. Cells were then incubated in the presence of increasing concentration of compounds (1 pM to 30 μM) at 37° C. for 30 mins. For control responses cells were incubated with RPMI/FCS only. The agonist eotaxin (either a concentration response curve or for the functional inhibition curves an EC80 concentration) was added to the lower chamber of a 96 well chemotaxis plate (5 μm filter: Receptor Technologies). Eosinophils (50 μl of 2 million/ml cells) were added to the top chamber of the filter plate and incubated at 37° C. for 45 mins. Cells remaining on top of the chemotaxis filter were removed and the number of eosinophils which had migrated were quantified by reading the plate on a fluorescent plate reader. Inhibition curves for the effect of compounds on eosinophil chemotaxis were analysed by fitting the data with a four parameter logistic equation. Functional pKi values (fpKi) were generated using the equation below (Lazareno & Birdsall, 1995. Br. J. Pharmacol 109: 1110–9).
row,Ki [nM],SMILES
1,9.77,"C#CCNC(=O)NC[C@H]1CN(Cc2ccc(Cl)c(Cl)c2)CCO1 [Example 57, N-{[(2S)-4-(3,4-Dichlorobenzyl)morpholin-2-yl]methyl}-N′-prop-2-ynylurea]"
2,5.01,"Cn1nnc(CNC(=O)NC[C@H]2CN(Cc3ccc(Cl)c(Cl)c3)CCO2)n1 [Example 136, N-{[(2S)-4-(3,4-dichlorobenzyl)morpholin-2-yl]methyl}-N′-[(2-methyl-2H-tetraazol-5-yl)methyl]urea]"
3,15.8,"NC(=O)c1ccc(CNC(=O)NC[C@H]2CN(Cc3ccc(Cl)c(Cl)c3)CCO2)cc1 [Example 54, 4-({[({[(2S)-4-(3,4-Dichlorobenzyl)morpholin-2-yl]methyl}amino)carbonyl]amino}methyl)benzamide]"
4,38.9,"O=C(NCc1cccc(Cl)c1)NCC1CN(Cc2ccc(Cl)c(Cl)c2)CCO1 (stereo not shown) [Example 48, N-(3-Chlorobenzyl)-N′-{[4-(3,4-dichlorobenzyl)morpholin-2-yl]methyl}urea]"
5,15.8,"CNC(=O)c1ccc(CNC(=O)NC[C@H]2CN(Cc3ccc(Cl)c(Cl)c3)CCO2)cc1 [Example 149, 4-({[({[(2S)-4-(3,4-dichlorobenzyl)morpholin-2-yl]methyl}amino)carbonyl]amino}methyl)-N-methylbenzamide]"

# The next lines start with the molecule.
row,SMILES,Ki [nM]
1,"O=C(NCC1CN(Cc2cccc(Cl)c2)CCO1)Nc1ccc(Cl)cc1 (stereo not shown) [Example 26, N-{[4-(3-Chlorobenzyl)morpholin-2-yl]methyl}-N′-(4-chlorophenyl)urea]",1410
2,"COc1ccc(CNC(=O)NCC2CN(Cc3ccc(Cl)c(Cl)c3)CCO2)cc1 (stereo not shown) [Example 2, N-{[4-(3,4-Dichlorobenzyl)morpholin-2-yl]methyl}-N′-(4-methoxybenzyl)urea]",49
3,"O=C(NCC1CN(Cc2ccc(Cl)c(Cl)c2)CCO1)Nc1cccc(Cl)c1 (stereo not shown) [Example 13, N-(3-Chlorophenyl)-N′-{[4-(3,4-dichlorobenzyl)morpholin-2-yl]methyl}urea]",407
4,"Cc1cccc(CNC(=O)NCC2CN(Cc3ccc(Cl)c(Cl)c3)CCO2)c1 (stereo not shown) [Example 4, N-{[4-(3,4-Dichlorobenzyl)morpholin-2-yl]methyl}-N′-(3-methylbenzyl)urea]",44.7
5,"O=C(NCC1CN(Cc2cccc3ccccc23)CCO1)Nc1ccc(Cl)cc1 (stereo not shown) [Example 19, N-(4-Chlorophenyl)-N′-{[4-(1 naphthylmethyl)morpholin-2-yl]methyl}urea]",1100
6,"O=C(NCCc1ccccc1)NCC1CN(Cc2ccc(Cl)c(Cl)c2)CCO1 (stereo not shown) [Example 8, N-{[4-(3,4-Dichlorobenzyl)morpholin-2-yl]methyl}-N′-(2-phenylethyl)urea]",115
7,"CSc1cccc(NC(=O)NCC2CN(Cc3ccc(Cl)c(Cl)c3)CCO2)c1 (stereo not shown) [Example 18, N-{[4-(3,4-Dichlorobenzyl)morpholin-2-yl]methyl}-N′-[3-(methylthio)phenyl]urea]",1450
